Laboratory results reported in PubChem BioAssay (NCI).
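In this assay, cells in 96-well plates receive the compound at five concentrations for 48 hours. Endpoints are linearly interpolated between the surrounding concentrations. At the GI50, growth is halved. At the TGI there is no net growth.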

Columns and labels:
Experiment in all cases: DTP human tumour cell line panel, 48 h
EKVX NSCLC = test system: EKVX NSCLC
OVCAR-3 ovarian = test system: OVCAR-3 ovarian
OVCAR-8 ovarian = test system: OVCAR-8 ovarian
786-0 renal = test system: 786-0 renal
CAKI-1 renal = test system: CAKI-1 renal
HCC-2998 colon = test system: HCC-2998 colon
UACC-257 melanoma = test system: UACC-257 melanoma
TK-10 renal = test system: TK-10 renal
OVCAR-4 ovarian = test system: OVCAR-4 ovarian
RXF 393 renal = test system: RXF 393 renal
HOP-92 NSCLC = test system: HOP-92 NSCLC
RPMI-8226 leukemia = test system: RPMI-8226 leukemia
HS 578T breast = test system: HS 578T breast
HOP-62 NSCLC = test system: HOP-62 NSCLC
UO-31 renal = test system: UO-31 renal
LOX IMVI melanoma = test system: LOX IMVI melanoma
SN12C renal = test system: SN12C renal
T-47D breast = test system: T-47D breast
MCF7 breast = test system: MCF7 breast
SF-539 CNS = test system: SF-539 CNS
HCT-15 colon = test system: HCT-15 colon
SK-MEL-28 melanoma = test system: SK-MEL-28 melanoma
SK-MEL-5 melanoma = test system: SK-MEL-5 melanoma
NCI-H522 lung = test system: NCI-H522 lung
DU-145 prostate = test system: DU-145 prostate
NCI-H23 lung = test system: NCI-H23 lung
NCI-H460 lung = test system: NCI-H460 lung
SF-295 CNS = test system: SF-295 CNS
A498 renal = test system: A498 renal
M14 melanoma = test system: M14 melanoma
SK-OV-3 ovarian = test system: SK-OV-3 ovarian
U251 CNS = test system: U251 CNS
MALME-3M melanoma = test system: MALME-3M melanoma
PC-3 prostate = test system: PC-3 prostate
UACC-62 melanoma = test system: UACC-62 melanoma
A549 NSCLC = test system: A549 NSCLC
HCT-116 colon = test system: HCT-116 colon
SW-620 colon = test system: SW-620 colon
NCI-H226 lung = test system: NCI-H226 lung
OVCAR-5 ovarian = test system: OVCAR-5 ovarian
BT-549 breast = test system: BT-549 breast
SNB-19 CNS = test system: SNB-19 CNS
MDA-MB-231 breast = test system: MDA-MB-231 breast
MDA-MB-435 = test system: MDA-MB-435
ACHN renal = test system: ACHN renal
SF-268 CNS = test system: SF-268 CNS
HT29 colon = test system: HT29 colon
IGROV1 ovarian = test system: IGROV1 ovarian
KM12 colon = test system: KM12 colon
COLO 205 colon = test system: COLO 205 colon
SNB-75 CNS = test system: SNB-75 CNS
NCI/ADR-RES ovarian = test system: NCI/ADR-RES ovarian
HL-60(TB) leukemia = test system: HL-60(TB) leukemia
MOLT-4 leukemia = test system: MOLT-4 leukemia
SK-MEL-2 melanoma = test system: SK-MEL-2 melanoma
CCRF-CEM leukemia = test system: CCRF-CEM leukemia
K-562 leukemia = test system: K-562 leukemia

Question: What does the source list for O=c1[nH]cnc2c(C3NC(CO)C(O)C3O)c[nH]c12 (stereo not given)?
Answer: GI50 (EKVX NSCLC): > 100 µM; TGI (EKVX NSCLC): > 100 µM; GI50 (OVCAR-3 ovarian): > 100 µM; TGI (OVCAR-3 ovarian): > 100 µM; GI50 (OVCAR-8 ovarian): > 100 µM; TGI (OVCAR-8 ovarian): > 100 µM; GI50 (786-0 renal): > 100 µM; TGI (786-0 renal): > 100 µM; GI50 (CAKI-1 renal): > 100 µM; TGI (CAKI-1 renal): > 100 µM; GI50 (HCC-2998 colon): > 100 µM; TGI (HCC-2998 colon): > 100 µM; GI50 (UACC-257 melanoma): > 100 µM; TGI (UACC-257 melanoma): > 100 µM; GI50 (TK-10 renal): > 100 µM; TGI (TK-10 renal): > 100 µM; GI50 (OVCAR-4 ovarian): > 100 µM; TGI (OVCAR-4 ovarian): > 100 µM; GI50 (RXF 393 renal): > 100 µM; TGI (RXF 393 renal): > 100 µM; GI50 (HOP-92 NSCLC): > 100 µM; TGI (HOP-92 NSCLC): > 100 µM; GI50 (RPMI-8226 leukemia): > 100 µM; TGI (RPMI-8226 leukemia): > 100 µM; GI50 (HS 578T breast): > 100 µM; TGI (HS 578T breast): > 100 µM; GI50 (HOP-62 NSCLC): > 100 µM; TGI (HOP-62 NSCLC): > 100 µM; GI50 (UO-31 renal): > 100 µM; TGI (UO-31 renal): > 100 µM; GI50 (LOX IMVI melanoma): > 100 µM; TGI (LOX IMVI melanoma): > 100 µM; GI50 (SN12C renal): > 100 µM; TGI (SN12C renal): > 100 µM; GI50 (T-47D breast): > 100 µM; TGI (T-47D breast): > 100 µM; GI50 (MCF7 breast): > 100 µM; TGI (MCF7 breast): > 100 µM; GI50 (SF-539 CNS): > 100 µM; TGI (SF-539 CNS): > 100 µM; GI50 (HCT-15 colon): > 100 µM; TGI (HCT-15 colon): > 100 µM; GI50 (SK-MEL-28 melanoma): > 100 µM; TGI (SK-MEL-28 melanoma): > 100 µM; GI50 (SK-MEL-5 melanoma): > 100 µM; TGI (SK-MEL-5 melanoma): > 100 µM; GI50 (NCI-H522 lung): > 100 µM; TGI (NCI-H522 lung): > 100 µM; GI50 (DU-145 prostate): > 100 µM; TGI (DU-145 prostate): > 100 µM; GI50 (NCI-H23 lung): > 100 µM; TGI (NCI-H23 lung): > 100 µM; GI50 (NCI-H460 lung): > 100 µM; TGI (NCI-H460 lung): > 100 µM; GI50 (SF-295 CNS): > 100 µM; TGI (SF-295 CNS): > 100 µM; GI50 (A498 renal): > 100 µM; TGI (A498 renal): > 100 µM; GI50 (M14 melanoma): > 100 µM; TGI (M14 melanoma): > 100 µM; GI50 (SK-OV-3 ovarian): > 100 µM; TGI (SK-OV-3 ovarian): > 100 µM; GI50 (U251 CNS): > 100 µM; TGI (U251 CNS): > 100 µM; GI50 (MALME-3M melanoma): > 100 µM; TGI (MALME-3M melanoma): > 100 µM; GI50 (PC-3 prostate): > 100 µM; TGI (PC-3 prostate): > 100 µM; GI50 (UACC-62 melanoma): > 100 µM; TGI (UACC-62 melanoma): > 100 µM; GI50 (A549 NSCLC): > 100 µM; TGI (A549 NSCLC): > 100 µM; GI50 (HCT-116 colon): > 100 µM; TGI (HCT-116 colon): > 100 µM; GI50 (SW-620 colon): > 100 µM; TGI (SW-620 colon): > 100 µM; GI50 (NCI-H226 lung): > 100 µM; TGI (NCI-H226 lung): > 100 µM; GI50 (OVCAR-5 ovarian): > 100 µM; TGI (OVCAR-5 ovarian): > 100 µM; GI50 (BT-549 breast): > 100 µM; TGI (BT-549 breast): > 100 µM; GI50 (SNB-19 CNS): > 100 µM; TGI (SNB-19 CNS): > 100 µM; GI50 (MDA-MB-231 breast): > 100 µM; TGI (MDA-MB-231 breast): > 100 µM; GI50 (MDA-MB-435): > 100 µM; TGI (MDA-MB-435): > 100 µM; GI50 (ACHN renal): > 100 µM; TGI (ACHN renal): > 100 µM; GI50 (SF-268 CNS): > 100 µM; TGI (SF-268 CNS): > 100 µM; GI50 (HT29 colon): > 100 µM; TGI (HT29 colon): > 100 µM; GI50 (IGROV1 ovarian): > 100 µM; TGI (IGROV1 ovarian): > 100 µM; GI50 (KM12 colon): > 100 µM; TGI (KM12 colon): > 100 µM; GI50 (COLO 205 colon): > 100 µM; TGI (COLO 205 colon): > 100 µM; GI50 (SNB-75 CNS): > 100 µM; TGI (SNB-75 CNS): > 100 µM; GI50 (NCI/ADR-RES ovarian): > 100 µM; TGI (NCI/ADR-RES ovarian): > 100 µM

Question: Which TGI (EKVX NSCLC) does the source give for CCC[C@H](C)C[C@H](C)C[C@H](C)/C=C(\C)[C@@H](O)[C@@H](C)C(=O)CC here?
Answer: 34.7 µM

Question: What about the TGI (OVCAR-3 ovarian) of the same compound?
Answer: 34.4 µM

Question: What about the TGI (OVCAR-8 ovarian) of the same compound?
Answer: 39.4 µM

Question: What about the TGI (786-0 renal) of the same compound?
Answer: 35.7 µM

Question: What about the TGI (CAKI-1 renal) of the same compound?
Answer: 37.4 µM

Question: What about the TGI (HCC-2998 colon) of the same compound?
Answer: 31.2 µM

Question: And the TGI (UACC-257 melanoma)?
Answer: 38.9 µM

Question: And the TGI (TK-10 renal)?
Answer: 38.3 µM

Question: What about the TGI (OVCAR-4 ovarian) of the same compound?
Answer: 36.8 µM

Question: What about the TGI (RXF 393 renal) of the same compound?
Answer: 40 µM

Question: What about the TGI (HOP-92 NSCLC) of the same compound?
Answer: 38.3 µM

Question: And the TGI (HL-60(TB) leukemia)?
Answer: 36.2 µM

Question: What about the TGI (RPMI-8226 leukemia) of the same compound?
Answer: 49 µM

Question: What about the TGI (HS 578T breast) of the same compound?
Answer: 51.8 µM

Question: What about the TGI (MOLT-4 leukemia) of the same compound?
Answer: 43.3 µM

Question: What about the TGI (HOP-62 NSCLC) of the same compound?
Answer: 35.2 µM

Question: And the TGI (UO-31 renal)?
Answer: 41.7 µM

Question: And the TGI (LOX IMVI melanoma)?
Answer: 37.8 µM

Question: What about the TGI (SN12C renal) of the same compound?
Answer: 35.5 µM

Question: What about the TGI (T-47D breast) of the same compound?
Answer: 50.8 µM

Question: And the TGI (MCF7 breast)?
Answer: 42.7 µM

Question: What about the TGI (SF-539 CNS) of the same compound?
Answer: 37 µM

Question: What about the TGI (HCT-15 colon) of the same compound?
Answer: 41.7 µM

Question: What about the TGI (SK-MEL-28 melanoma) of the same compound?
Answer: 33.4 µM

Question: What about the TGI (SK-MEL-5 melanoma) of the same compound?
Answer: 36.1 µM

Question: And the TGI (NCI-H522 lung)?
Answer: 36.4 µM

Question: And the TGI (DU-145 prostate)?
Answer: 43.4 µM

Question: And the TGI (NCI-H23 lung)?
Answer: 33.3 µM

Question: And the TGI (NCI-H460 lung)?
Answer: 53.4 µM

Question: What about the TGI (SF-295 CNS) of the same compound?
Answer: 37.9 µM

Question: What about the TGI (A498 renal) of the same compound?
Answer: 42.6 µM

Question: And the TGI (M14 melanoma)?
Answer: 35.7 µM

Question: What about the TGI (SK-OV-3 ovarian) of the same compound?
Answer: > 100 µM

Question: What about the TGI (U251 CNS) of the same compound?
Answer: 44.7 µM

Question: What about the TGI (MALME-3M melanoma) of the same compound?
Answer: 33.6 µM

Question: What about the TGI (PC-3 prostate) of the same compound?
Answer: 37.2 µM

Question: And the TGI (UACC-62 melanoma)?
Answer: 33.8 µM

Question: What about the TGI (A549 NSCLC) of the same compound?
Answer: 39.4 µM

Question: What about the TGI (HCT-116 colon) of the same compound?
Answer: 33.9 µM

Question: And the TGI (SW-620 colon)?
Answer: 43 µM

Question: And the TGI (NCI-H226 lung)?
Answer: 42.6 µM

Question: What about the TGI (OVCAR-5 ovarian) of the same compound?
Answer: 34.1 µM

Question: And the TGI (BT-549 breast)?
Answer: 44.1 µM

Question: What about the TGI (SNB-19 CNS) of the same compound?
Answer: 36.1 µM

Question: What about the TGI (SK-MEL-2 melanoma) of the same compound?
Answer: 44.7 µM

Question: And the TGI (MDA-MB-231 breast)?
Answer: 44.6 µM

Question: What about the TGI (MDA-MB-435) of the same compound?
Answer: 35.7 µM

Question: What about the TGI (ACHN renal) of the same compound?
Answer: 39 µM

Question: What about the TGI (CCRF-CEM leukemia) of the same compound?
Answer: 52.8 µM

Question: And the TGI (SF-268 CNS)?
Answer: 39.6 µM

Question: What about the TGI (HT29 colon) of the same compound?
Answer: 37 µM

Question: And the TGI (IGROV1 ovarian)?
Answer: 36.2 µM

Question: And the TGI (KM12 colon)?
Answer: 42 µM

Question: And the TGI (SNB-75 CNS)?
Answer: > 100 µM

Question: And the TGI (K-562 leukemia)?
Answer: 38 µM

Question: What about the TGI (NCI/ADR-RES ovarian) of the same compound?
Answer: 30.9 µM
